Here are results for one compound from patent publication US20150352026A1, “COMPOSITION FOR INCREASING OF THE EFFECTIVENESS OF UV-B THERAPY, PROCESS FOR THE PREPARATION THEREOF, AND ITS USE” (GLOBALDERM KOZMETOLÓGIAI KORLÁTOLT FELELÖSSÉGÜ TÁRSASÁG, priority 2013, published 2015).

The nature of this series: Optical transmittance spectrum (Helios spectrophotometer, 200-600 nm). The format is physicochemical. To be noted: sharp decrease around 300 nm, below this value. As to the method:
Furthermore, a sharp decrease of transmittance was detectable around 300 nm wavelength and it fell to zero below this value.
Compositions suitable for therapeutic purposes were selected by the measurement of optical transmittance. Measurements were performed using a Helios a spectrophotometer in the wavelength range of 200-600 nm. FIGS. […] and 2 show optical transmittance spectra of Macrogol 400 and the spray formulation of the composition, respectively. FIG. 3 illustrates the optical transmittance spectrum of the gel formulation of the composition.

For `O=C(O)c1cccnc1` [nicotinic acid], the “transmittance around and below 300 nm wavelength” value is recorded as “more pronounced”.
